Consider 28 compounds from patent US8975398B2, “NAMPT inhibitors” (AbbVie Inc., priority 2012, dated 2015).

Each structure is given as a SMILES string.

Assay [1] has as its target NAMPT (human, recombinant, C-terminally His-tagged) (Homo sapiens, UniProt P43490). As to the kind of experiment: Time-Resolved Fluorescence Resonance Energy Transfer (TR-FRET) Binding Assay of NAMPT. The settings on record: 6.8 nM NAMPT, 200 nM probe, equilibrated 3 hours, absence of substrates. The method in brief:
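Probe displacement measured by TR-FRET (Ex 337 nm; 520/495 nm ratio) after 3 h room-temperature equilibration of compound with 6.8 nM His-tagged human NAMPT, 1 nM Tb-anti-His antibody and 200 nM Oregon Green 488 nicotinamide-site probe, pH 7.5 HEPES buffer, 2% DMSO. Control-normalized data fit four-parameter logistic for IC50.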
(In general: Time-resolved FRET reads energy transfer from a long-lived donor to a nearby acceptor.)

Another assay deals with NAMPT (Homo sapiens, UniProt P43490). As to the kind of experiment: Time-Resolved Fluorescence Resonance Energy Transfer (TR-FRET) Binding Assay of NAMPT with PRPP. Particulars: 2 nM NAMPT, 2 nM probe, 200 uM PRPP and 2.5 mM ATP, equilibrated 16 hours. A digest of the protocol:
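Binding measured by TR-FRET after a 16-hour equilibration meant to permit enzymatic compound modification. Substrates present at 200 uM PRPP and 2.5 mM ATP, with 2 nM enzyme, 2 nM probe, 1 nM Tb-anti-His antibody and 2% DMSO final.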

Sequence of NAMPT (human, recombinant, C-terminally His-tagged) (P43490 whole entry): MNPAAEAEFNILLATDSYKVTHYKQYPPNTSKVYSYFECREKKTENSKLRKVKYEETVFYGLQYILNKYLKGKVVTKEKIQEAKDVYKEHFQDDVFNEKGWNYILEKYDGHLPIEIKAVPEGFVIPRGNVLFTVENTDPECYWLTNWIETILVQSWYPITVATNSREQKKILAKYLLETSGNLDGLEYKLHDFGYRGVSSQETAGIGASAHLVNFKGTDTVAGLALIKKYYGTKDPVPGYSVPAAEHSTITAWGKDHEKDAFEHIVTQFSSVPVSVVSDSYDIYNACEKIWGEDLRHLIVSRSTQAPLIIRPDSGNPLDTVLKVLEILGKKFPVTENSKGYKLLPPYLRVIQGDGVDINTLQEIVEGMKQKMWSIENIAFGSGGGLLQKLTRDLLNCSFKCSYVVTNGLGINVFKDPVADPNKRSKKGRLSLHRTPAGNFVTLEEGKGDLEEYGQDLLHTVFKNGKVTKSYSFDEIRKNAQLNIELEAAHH
Sequence of NAMPT (P43490 whole entry): as above

As to `O=C(Nc1ccc(OC2CCN(C(=O)Cc3ccc(C(F)(F)F)cc3)CC2)cc1)C1CN(c2cccnn2)C1` [Example 220, 1-(pyridazin-3-yl)-N-{4-[(1-{[4-(trifluoromethyl)phenyl]acetyl}piperidin-4-yl)oxy]phenyl}azetidine-3-carboxamide], the half-maximal inhibitory concentration (IC50) worked out at 267 nM in assay [1] and 1.01 nM on NAMPT.
On to `O=C(Nc1ccc(OC2CCN(C(=O)C3CCCO3)CC2)cc1)C1CN(c2cccnn2)C1` (centres unmarked) [Example 221, 1-(pyridazin-3-yl)-N-(4-{[1-(tetrahydrofuran-2-ylcarbonyl)piperidin-4-yl]oxy}phenyl)azetidine-3-carboxamide], for which the figures for the IC50 (in assay [1]; at NAMPT) were 164 nM and 0.576 nM, respectively.
As for `O=C(Nc1ccc(OC2CCN(C(=O)c3cccc(C(F)(F)F)c3)CC2)cc1)C1CN(c2cccnn2)C1` [Example 222, 1-(pyridazin-3-yl)-N-[4-({1-[3-(trifluoromethyl)benzoyl]piperidin-4-yl}oxy)phenyl]azetidine-3-carboxamide], the half-inhibitory concentration (IC50) stood at 215 nM in assay [1] and 1.03 nM at NAMPT.
As to `O=C(Nc1ccc(OC2CCN(C(=O)c3ccsc3)CC2)cc1)C1CN(c2cccnn2)C1` [Example 223, 1-(pyridazin-3-yl)-N-(4-{[1-(thiophen-3-ylcarbonyl)piperidin-4-yl]oxy}phenyl)azetidine-3-carboxamide], the half-maximal inhibitory concentration (IC50) in assay [1] was 150 nM; at NAMPT, 0.959 nM.
For `O=C(Nc1ccc(OC2CCN(C(=O)c3cccc(OC(F)(F)F)c3)CC2)cc1)C1CN(c2cccnn2)C1` [Example 224, 1-(pyridazin-3-yl)-N-[4-({1-[3-(trifluoromethoxy)benzoyl]piperidin-4-yl}oxy)phenyl]azetidine-3-carboxamide], the IC50 in assay [1] stood at 151 nM; on NAMPT it was 1.39 nM.
With `CC(C)CC(=O)N1CCC(Oc2ccc(NC(=O)C3CN(c4cccnn4)C3)cc2)CC1` [Example 225, N-(4-{[1-(3-methylbutanoyl)piperidin-4-yl]oxy}phenyl)-1-(pyridazin-3-yl)azetidine-3-carboxamide], the results for the concentration for half-maximal inhibition (IC50) (in assay [1]; on NAMPT) were 158 nM and 1.07 nM, respectively.
As to `O=C(Nc1ccc(OC2CCN(C(=O)C3CCOC3)CC2)cc1)C1CN(c2cccnn2)C1` (centres unmarked) [Example 226, 1-(pyridazin-3-yl)-N-(4-{[1-(tetrahydrofuran-3-ylcarbonyl)piperidin-4-yl]oxy}phenyl)azetidine-3-carboxamide], the IC50 is 242 nM in assay [1] and 0.896 nM on NAMPT.
Consider `O=C(Nc1ccc(OC2CCN(C(=O)Cc3cccc(F)c3)CC2)cc1)C1CN(c2cccnn2)C1` [Example 227, N-[4-({1-[(3-fluorophenyl)acetyl]piperidin-4-yl}oxy)phenyl]-1-(pyridazin-3-yl)azetidine-3-carboxamide], for which the values for the IC50 (in assay [1]; on NAMPT) were 65.9 nM and 0.696 nM, respectively.
With `O=C(Nc1ccc(OC2CCN(C(=O)c3ccccc3F)CC2)cc1)C1CN(c2cccnn2)C1` [Example 228, N-(4-{[1-(2-fluorobenzoyl)piperidin-4-yl]oxy}phenyl)-1-(pyridazin-3-yl)azetidine-3-carboxamide], the figures for the half-maximal inhibitory concentration (IC50) (in assay [1]; at NAMPT) were 54.6 nM and 0.911 nM, respectively.
Take `O=C(Nc1ccc(OC2CCN(C(=O)c3ccc(F)cc3F)CC2)cc1)C1CN(c2cccnn2)C1` [Example 229, N-(4-{[1-(2,4-difluorobenzoyl)piperidin-4-yl]oxy}phenyl)-1-(pyridazin-3-yl)azetidine-3-carboxamide]: the IC50 in assay [1] is 48 nM; at NAMPT it was 0.584 nM.
On to `O=C(Nc1ccc(OC2CCN(C(=O)c3ccc(F)cc3)CC2)cc1)C1CN(c2cccnn2)C1` [Example 230, N-(4-{[1-(4-fluorobenzoyl)piperidin-4-yl]oxy}phenyl)-1-(pyridazin-3-yl)azetidine-3-carboxamide], for which the IC50 in assay [1] was determined as 158 nM; at NAMPT, 0.843 nM.
As to `O=C(Nc1ccc(OC2CCN(C(=O)c3cccc(F)c3)CC2)cc1)C1CN(c2cccnn2)C1` [Example 231, N-(4-{[1-(3-fluorobenzoyl)piperidin-4-yl]oxy}phenyl)-1-(pyridazin-3-yl)azetidine-3-carboxamide], the IC50 in assay [1] turned out to be 174 nM; at NAMPT it was 0.831 nM.
Regarding `O=C(Nc1ccc(OC2CCN(C(=O)Cc3ccc(F)cc3)CC2)cc1)C1CN(c2cccnn2)C1` [Example 232, N-[4-({1-[(4-fluorophenyl)acetyl]piperidin-4-yl}oxy)phenyl]-1-(pyridazin-3-yl)azetidine-3-carboxamide], the IC50 in assay [1] worked out at 141 nM; at NAMPT, 0.563 nM.
The like results for `O=C(Nc1ccc(OC2CCN(C(=O)CC3CC3)CC2)cc1)C1CN(c2cccnn2)C1` [Example 233, N-(4-{[1-(cyclopropylacetyl)piperidin-4-yl]oxy}phenyl)-1-(pyridazin-3-yl)azetidine-3-carboxamide] were, in that order, 113 nM and 0.614 nM.
For `O=C(Nc1ccc(OC2CCN(C(=O)c3ccc(F)c(F)c3)CC2)cc1)C1CN(c2cccnn2)C1` [Example 234, N-(4-{[1-(3,4-difluorobenzoyl)piperidin-4-yl]oxy}phenyl)-1-(pyridazin-3-yl)azetidine-3-carboxamide], the figures for the IC50 (in assay [1]; on NAMPT) were 185 nM and 0.73 nM, respectively.
For `O=C(Nc1ccc(OC2CCN(C(=O)c3ccc(OC(F)(F)F)cc3)CC2)cc1)C1CN(c2cccnn2)C1` [Example 235, 1-(pyridazin-3-yl)-N-[4-({1-[4-(trifluoromethoxy)benzoyl]piperidin-4-yl}oxy)phenyl]azetidine-3-carboxamide], the concentration for half-maximal inhibition (IC50) in assay [1] amounted to 283 nM; at NAMPT it was 1.41 nM.
As for `O=C(Nc1ccc(OC2CCN(C(=O)Cc3ccc(F)cc3F)CC2)cc1)C1CN(c2cccnn2)C1` [Example 236, N-[4-({1-[(2,4-difluorophenyl)acetyl]piperidin-4-yl}oxy)phenyl]-1-(pyridazin-3-yl)azetidine-3-carboxamide], the IC50 was 130 nM in assay [1] and 1.11 nM at NAMPT.
In the case of `O=C(Nc1ccc(OC2CCN(C(=O)c3ccc(C(F)(F)F)cc3)CC2)cc1)C1CN(c2cccnn2)C1` [Example 237, 1-(pyridazin-3-yl)-N-[4-({1-[4-(trifluoromethyl)benzoyl]piperidin-4-yl}oxy)phenyl]azetidine-3-carboxamide], the IC50 is 240 nM in assay [1] and 1.27 nM on NAMPT.
On to `O=C(Nc1ccc(OC2CCN(C(=O)Cc3ccc(OC(F)(F)F)cc3)CC2)cc1)C1CN(c2cccnn2)C1` [Example 238, 1-(pyridazin-3-yl)-N-{4-[(1-{[4-(trifluoromethoxy)phenyl]acetyl}piperidin-4-yl)oxy]phenyl}azetidine-3-carboxamide], for which the 50% inhibitory concentration (IC50) is 207 nM in assay [1] and 0.554 nM on NAMPT.
For the compound `O=C(Nc1ccc(OC2CCN(C(=O)Cc3cc(F)cc(F)c3)CC2)cc1)C1CN(c2cccnn2)C1` [Example 239, N-[4-({1-[(3,5-difluorophenyl)acetyl]piperidin-4-yl}oxy)phenyl]-1-(pyridazin-3-yl)azetidine-3-carboxamide], the figures for the half-inhibitory concentration (IC50) (in assay [1]; at NAMPT) were 112 nM and 0.833 nM, respectively.
Regarding `O=C(Nc1ccc(OC2CCN(C(=O)Cc3cccc(C(F)(F)F)c3)CC2)cc1)C1CN(c2cccnn2)C1` [Example 240, 1-(pyridazin-3-yl)-N-{4-[(1-{[3-(trifluoromethyl)phenyl]acetyl}piperidin-4-yl)oxy]phenyl}azetidine-3-carboxamide], the half-inhibitory concentration (IC50) was 192 nM in assay [1] and 0.925 nM at NAMPT.
Take `CC(C)(C)C(=O)N1CCC(Oc2ccc(NC(=O)C3CN(c4cccnn4)C3)cc2)CC1` [Example 241, N-(4-{[1-(2,2-dimethylpropanoyl)piperidin-4-yl]oxy}phenyl)-1-(pyridazin-3-yl)azetidine-3-carboxamide]: the IC50 is 131 nM in assay [1] and 0.811 nM on NAMPT.
For `O=C(Nc1ccc(OC2CCN(C(=O)c3ccccn3)CC2)cc1)C1CN(c2cccnn2)C1` [Example 242, 1-(pyridazin-3-yl)-N-(4-{[1-(pyridin-2-ylcarbonyl)piperidin-4-yl]oxy}phenyl)azetidine-3-carboxamide], the IC50 in assay [1] worked out at 278 nM; at NAMPT, 1.17 nM.
As for `O=C(Nc1ccc(OC2CCN(C(=O)c3cc(F)cc(F)c3)CC2)cc1)C1CN(c2cccnn2)C1` [Example 243, N-(4-{[1-(3,5-difluorobenzoyl)piperidin-4-yl]oxy}phenyl)-1-(pyridazin-3-yl)azetidine-3-carboxamide], the concentration for half-maximal inhibition (IC50) in assay [1] was 269 nM; on NAMPT it was 0.97 nM.
The like results for `CC(=O)N1CCC(Oc2ccc(NC(=O)C3CN(c4cccnn4)C3)cc2)CC1` [Example 244, -{4-[(1-acetylpiperidin-4-yl)oxy]phenyl}-1-(pyridazin-3-yl)azetidine-3-carboxamide] were, in that order, 449 nM and 0.916 nM.
The like results for `O=C(Nc1ccc(OC2CCN(C(=O)c3ccc(Cl)cc3)CC2)cc1)C1CN(c2cccnn2)C1` [Example 245, N-(4-{[1-(4-chlorobenzoyl)piperidin-4-yl]oxy}phenyl)-1-(pyridazin-3-yl)azetidine-3-carboxamide] were, in that order, 101 nM and 0.707 nM.
The like results for `COCC(=O)N1CCC(Oc2ccc(NC(=O)C3CN(c4cccnn4)C3)cc2)CC1` [Example 246, N-(4-{[1-(methoxyacetyl)piperidin-4-yl]oxy}phenyl)-1-(pyridazin-3-yl)azetidine-3-carboxamide] were, in that order, 178 nM and 0.676 nM.
In the case of `O=C(Nc1ccc(OC2CCN(C(=O)Cc3ccccc3F)CC2)cc1)C1CN(c2cccnn2)C1` [Example 247, N-[4-({1-[(2-fluorophenyl)acetyl]piperidin-4-yl}oxy)phenyl]-1-(pyridazin-3-yl)azetidine-3-carboxamide], the concentration for half-maximal inhibition (IC50) in assay [1] came out at 86 nM; on NAMPT it was 1.02 nM.

As a reminder, the IC50 is the point on the concentration scale where inhibition reaches its midpoint.
